Results on two substances are retold here after patent US9260444B2, “Crystalline form of 2-((1′-n-hexyloxy) ethyl)-2-divinyl-pyropheophorbide-a and method for preparing thereof” (Zhejiang Hisun Pharmaceutical Co., Ltd., priority 2012, dated 2016).

The nature of series [1]: Long term stability experiment of the HPPH crystal. Conditions: for Total impurity (%) / Content (based on dry weight, %): Temp 25° C. ± 2° C., Humidity 60% ± 5%; for Content (based on dry weight, %): standard content 98.0% to 102.0%. The class given is physicochemical. Here is the method: According to the Guidelines to the stability studies of active pharmaceutical ingredient and pharmaceutical preparation (Chinese Pharmacopoeia, 2010 Edition, the Second Part, Appendix XIX C) (Appendix 199 to 200), selecting the HPPH crystal sample prepared in Embodiment 1 (Lot No. S111101), mimicking pack to selling, placing it in an incubator at the temperature of 25° C.±2° C., and the relative humidity of 60%±5%, after 6 months, taking the sample out, and examining it with the key examination items for stability, then comparing the examination results with the results obtained in the 0 month.

Series [2] can be described thus: Accelerated stability experiment of the HPPH crystal. The class given is physicochemical. To be noted: for Total impurity (%) / Content (based on dry weight, %): Temp 40° C. ± 2° C., Humidity 75% ± 5%; for Content (based on dry weight, %): standard content 98.0% to 102.0%. Here is the method:
According to the Guidelines to the stability studies of active pharmaceutical ingredient and pharmaceutical preparation (Chinese Pharmacopoeia, 2010 Edition, the Second Part, Appendix XIX C) (Appendix 199 to 200), selecting the HPPH crystal sample prepared in Embodiment 1 (Lot No. S111101), mimicking pack to selling, placing in an incubator at the temperature of 40° C.±2° C., and the relative humidity of 75%±5%, after 6 months, taking the sample out, and examining it with the key examination items for stability, then comparing the examination results with the results obtained in the 0 month.

For the next series, the system named is esophageal cancer. To be noted: cited from earlier work.

“2-((1′-n-hexyloxy)ethyl)-2-divinyl-pyropheophorbide-a [HPPH crystal]”: the “Change of key stability examination items versus 0 month” value in series [1] (25° C. ± 2° C., relative humidity 60% ± 5%, after 6 months) was “no examination item has shown significant change”. For the same substance, the “Total impurity (%)” value in series [1] (0 month) is given as 0.25%; in series [1] (6 months), 0.26%; in series [2] (0 month), 0.25%; in series [2] (6 months) it was 0.27%. Moreover, the “Content (based on dry weight, %)” value in series [1] (0 month) turned out to be 99.9%; in series [1] (6 months) it was 99.8%; in series [2] (0 month), 99.9%; in series [2] (6 months) it was 98.9%. In addition, in series [2] (40° C. ± 2° C., relative humidity 75% ± 5%, after 6 months), the “Content in the 6 month sample versus 0 month” value was “slightly lower, yet still within the acceptable range”.

Consider “2-((1′-n-hexyloxy)ethyl)-2-divinyl-pyropheophorbide-a [HPPH]”, for which, in the series with esophageal cancer (5 esophageal cancer patients, very low dose), the Photodynamic therapeutic efficacy entry is “very good photodynamic therapeutic efficacy”. Also, the “Photosensitive side effect of skin” value in the series with esophageal cancer (clinical observation, esophageal cancer patients) was “no photosensitive side effect of skin has been observed”.
